# According to patent US12077503B2, “Substituted cyclic amides and their use as herbicides” (FMC CORPORATION, priority 2015, dated 2024):
# Tests used:
# Assay type in all cases: in vivo
# [1] = tested on: barnyardgrass (Echinochloa crus-galli); test: Test A preemergence; settings: for Plant response rating, Barnyardgrass: 125 g ai/ha, preemergence, 0 to 100 scale (0 no effect, 100 complete control); for Barnyardgrass plant response rating (0 to 100 scale): Preemergence, 0 is no effect, 100 is complete control
# In short: (§1)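 Compounds were formulated in a non-phytotoxic solvent mixture with surfactant and applied as a preemergence directed soil spray after seeding, or sprayed postemergence over plants 2 to 10 cm tall at the one- to two-leaf stage. Evaluation after about 10 d compared treated with untreated controls, using a scale from 0 (no effect) to 100 (complete control).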
# corn (Zea mays) [2] = test: Test A preemergence; settings: for Plant response rating, Corn: 125 g ai/ha, preemergence, 0 to 100 scale (0 no effect, 100 complete control); for Corn plant response rating (0 to 100 scale): Preemergence, 0 is no effect, 100 is complete control
# In short: as §1
# [3] = tested on: crabgrass, large (Digitaria sanguinalis); test: Test A preemergence; settings: for Plant response rating, Crabgrass, Large: 125 g ai/ha, preemergence, 0 to 100 scale (0 no effect, 100 complete control); for Crabgrass, Large plant response rating (0 to 100 scale): Preemergence, 0 is no effect, 100 is complete control
# In short: as §1
# [4] = tested on: giant foxtail (Setaria faberii); test: Test A preemergence; settings: for Plant response rating, Foxtail, Giant: 125 g ai/ha, preemergence, 0 to 100 scale (0 no effect, 100 complete control); for Foxtail, Giant plant response rating (0 to 100 scale): Preemergence, 0 is no effect, 100 is complete control
# In short: as §1
# [5] = tested on: morningglory (Ipomoea spp.); test: Test A preemergence; settings: for Plant response rating, Morningglory: 125 g ai/ha, preemergence, 0 to 100 scale (0 no effect, 100 complete control); for Morningglory plant response rating (0 to 100 scale): Preemergence, 0 is no effect, 100 is complete control
# In short: as §1
# [6] = tested on: pigweed (Amaranthus retroflexus); test: Test A preemergence; settings: for Plant response rating, Pigweed: 125 g ai/ha, preemergence, 0 to 100 scale (0 no effect, 100 complete control); for Pigweed plant response rating (0 to 100 scale): Preemergence, 0 is no effect, 100 is complete control
# [7] = tested on: velvetleaf (Abutilon theophrasti); test: Test A preemergence; settings: for Plant response rating, Velvetleaf: 125 g ai/ha, preemergence, 0 to 100 scale (0 no effect, 100 complete control); for Velvetleaf plant response rating (0 to 100 scale): Preemergence, 0 is no effect, 100 is complete control
# In short: as §1
# [8] = tested on: wheat (Triticum aestivum); test: Test A preemergence; settings: for Plant response rating, Wheat: 125 g ai/ha, preemergence, 0 to 100 scale (0 no effect, 100 complete control); for Wheat plant response rating (0 to 100 scale): Preemergence, 0 is no effect, 100 is complete control
# In short: as §1
# [9] = tested on: barnyardgrass (Echinochloa crus-galli); test: Test A postemergence
# In short: as §1
# corn (Zea mays) [10] = test: Test A postemergence
# In short: as §1
# [11] = tested on: crabgrass, large (Digitaria sanguinalis); test: Test A postemergence
# In short: as §1
# [12] = tested on: giant foxtail (Setaria faberii); test: Test A postemergence
# In short: as §1
# [13] = tested on: morningglory (Ipomoea spp.); test: Test A postemergence
# In short: as §1
# [14] = tested on: pigweed (Amaranthus retroflexus); test: Test A postemergence
# In short: as §1
# [15] = tested on: velvetleaf (Abutilon theophrasti); test: Test A postemergence
# In short: as §1
# [16] = tested on: wheat (Triticum aestivum); test: Test A postemergence
# In short: as §1
# [17] = tested on: barnyardgrass (Echinochloa crus-galli); test: Test B flooded paddy test; settings: Flood, 0 to 100 scale where 0 is no effect and 100 is complete control, 13 to 15 d
# In short: (§2)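 2-leaf plants; pots flooded 3 cm over soil; cpd added to paddy water; depth held; greenhouse 13–15 d; visual rating vs controls, 0 = no effect, 100 = complete control.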
# [18] = tested on: ducksalad (Heteranthera limosa); test: Test B flooded paddy test; settings: Flood, 0 to 100 scale where 0 is no effect and 100 is complete control, 13 to 15 d
# In short: as §2
# rice (Oryra sativa) = test: Test B flooded paddy test; settings: Flood, 0 to 100 scale where 0 is no effect and 100 is complete control, 13 to 15 d
# In short: as §2
# [19] = tested on: sedge, umbrella (small-flower umbrella sedge, Cyperus difformis); test: Test B flooded paddy test; settings: Flood, 0 to 100 scale where 0 is no effect and 100 is complete control, 13 to 15 d
# In short: as §2
# [20] = 500 g ai/ha, postemergence, 0 to 100 scale, 0 no effect, 100 complete control
# [21] = Postemergence, 125 g ai/ha, visual injury, 0 to 100 scale (0 no effect, 100 complete control), approx. 10 d
# [22] = 1000 g ai/ha, postemergence, 0 to 100 scale, 0 no effect, 100 complete control
smiles,measurement,setting,value
O=C1NCC(c2ccc(-c3ccccc3)cc2)C1C(=O)Nc1ccccc1F (racemic) [Compound 365],"Plant response rating, Barnyardgrass",[1],0
same,Barnyardgrass plant response rating (0 to 100 scale),[1]; 500 g ai/ha,0
same,"Plant response rating, Corn",corn (Zea mays) [2],0
same,Corn plant response rating (0 to 100 scale),corn (Zea mays) [2]; 500 g ai/ha,0
same,"Plant response rating, Crabgrass, Large",[3],0
same,"Crabgrass, Large plant response rating (0 to 100 scale)",[3]; 500 g ai/ha,0
same,"Plant response rating, Foxtail, Giant",[4],0
same,"Foxtail, Giant plant response rating (0 to 100 scale)",[4]; 500 g ai/ha,0
same,"Plant response rating, Morningglory",[5],0
same,Morningglory plant response rating (0 to 100 scale),[5]; 500 g ai/ha,0
same,"Plant response rating, Pigweed",[6],0
same,Pigweed plant response rating (0 to 100 scale),[6]; 500 g ai/ha,0
same,"Plant response rating, Velvetleaf",[7],0
same,Velvetleaf plant response rating (0 to 100 scale),[7]; 500 g ai/ha,0
same,"Plant response rating, Wheat",[8],0
same,Wheat plant response rating (0 to 100 scale),[8]; 500 g ai/ha,0
same,"Plant response rating, Barnyardgrass",[9]; [20],0
same,"Plant response rating, Barnyardgrass",[9]; [21],0
same,"Plant response rating, Corn",corn (Zea mays) [10]; [20],0
same,"Plant response rating, Corn",corn (Zea mays) [10]; [21],0
same,"Plant response rating, Crabgrass, Large",[11]; [20],0
same,"Plant response rating, Crabgrass, Large",[11]; [21],0
same,"Plant response rating, Foxtail, Giant",[12]; [20],0
same,"Plant response rating, Foxtail, Giant",[12]; [21],0
same,"Plant response rating, Morningglory",[13]; [20],0
same,"Plant response rating, Morningglory",[13]; [21],0
same,"Plant response rating, Pigweed",[14]; [20],0
same,"Plant response rating, Pigweed",[14]; [21],0
same,"Plant response rating, Velvetleaf",[15]; [20],0
same,"Plant response rating, Velvetleaf",[15]; [21],0
same,"Plant response rating, Wheat",[16]; [20],0
same,"Plant response rating, Wheat",[16]; [21],0
same,"Plant response rating, Barnyardgrass",[17]; 1000 g ai/ha,0
same,"Plant response rating, Ducksalad",[18]; 1000 g ai/ha,0
same,"Plant response rating, Rice",rice (Oryra sativa); 1000 g ai/ha,0
same,"Plant response rating, Sedge, Umbrella",[19]; 1000 g ai/ha,0
Nc1cccc(C2CNC(=O)C2C(=O)Nc2cccc(F)c2F)c1 (stereo not shown) [Compound 354],"Plant response rating, Barnyardgrass",[1],0
same,Barnyardgrass plant response rating (0 to 100 scale),[1]; 500 g ai/ha,0
same,"Plant response rating, Corn",corn (Zea mays) [2],0
same,Corn plant response rating (0 to 100 scale),corn (Zea mays) [2]; 500 g ai/ha,0
same,"Plant response rating, Crabgrass, Large",[3],0
same,"Crabgrass, Large plant response rating (0 to 100 scale)",[3]; 500 g ai/ha,0
same,"Plant response rating, Foxtail, Giant",[4],0
same,"Foxtail, Giant plant response rating (0 to 100 scale)",[4]; 500 g ai/ha,0
same,"Plant response rating, Morningglory",[5],0
same,Morningglory plant response rating (0 to 100 scale),[5]; 500 g ai/ha,0
same,"Plant response rating, Pigweed",[6],0
same,Pigweed plant response rating (0 to 100 scale),[6]; 500 g ai/ha,0
same,"Plant response rating, Velvetleaf",[7],0
same,Velvetleaf plant response rating (0 to 100 scale),[7]; 500 g ai/ha,0
same,"Plant response rating, Wheat",[8],0
same,Wheat plant response rating (0 to 100 scale),[8]; 500 g ai/ha,0
same,"Plant response rating, Barnyardgrass",[9]; [20],0
same,"Plant response rating, Barnyardgrass",[9]; [21],0
same,"Plant response rating, Corn",corn (Zea mays) [10]; [20],0
same,"Plant response rating, Corn",corn (Zea mays) [10]; [21],0
same,"Plant response rating, Crabgrass, Large",[11]; [20],0
same,"Plant response rating, Crabgrass, Large",[11]; [21],0
same,"Plant response rating, Foxtail, Giant",[12]; [20],0
same,"Plant response rating, Foxtail, Giant",[12]; [21],0
same,"Plant response rating, Morningglory",[13]; [20],0
same,"Plant response rating, Morningglory",[13]; [21],0
same,"Plant response rating, Pigweed",[14]; [20],0
same,"Plant response rating, Pigweed",[14]; [21],0
same,"Plant response rating, Velvetleaf",[15]; [20],0
same,"Plant response rating, Velvetleaf",[15]; [21],0
same,"Plant response rating, Wheat",[16]; [20],0
same,"Plant response rating, Wheat",[16]; [21],0
same,"Plant response rating, Barnyardgrass",[17]; 250 g ai/ha,0
same,"Plant response rating, Ducksalad",[18]; 250 g ai/ha,0
same,"Plant response rating, Rice",rice (Oryra sativa); 250 g ai/ha,20
same,"Plant response rating, Sedge, Umbrella",[19]; 250 g ai/ha,20
N#CCN(C(=O)C1C(=O)NCC1c1ccc(F)c(F)c1)c1ccccc1[N+](=O)[O-] (stereo not shown) [Compound 713],Barnyardgrass plant response rating (0 to 100 scale),[1]; 1000 g ai/ha,0
same,Corn plant response rating (0 to 100 scale),corn (Zea mays) [2]; 1000 g ai/ha,0
same,"Crabgrass, Large plant response rating (0 to 100 scale)",[3]; 1000 g ai/ha,80
same,"Foxtail, Giant plant response rating (0 to 100 scale)",[4]; 1000 g ai/ha,40
same,Morningglory plant response rating (0 to 100 scale),[5]; 1000 g ai/ha,0
same,Pigweed plant response rating (0 to 100 scale),[6]; 1000 g ai/ha,0
same,Velvetleaf plant response rating (0 to 100 scale),[7]; 1000 g ai/ha,0
same,Wheat plant response rating (0 to 100 scale),[8]; 1000 g ai/ha,0
same,"Plant response rating, Barnyardgrass",[9]; [22],0
same,"Plant response rating, Corn",corn (Zea mays) [10]; [22],0
same,"Plant response rating, Crabgrass, Large",[11]; [22],0
same,"Plant response rating, Foxtail, Giant",[12]; [22],0
same,"Plant response rating, Morningglory",[13]; [22],0
same,"Plant response rating, Pigweed",[14]; [22],0
same,"Plant response rating, Velvetleaf",[15]; [22],0
same,"Plant response rating, Wheat",[16]; [22],0
